#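 Abbreviation: GI50, concentration required for 50% inhibition of growth. Definition used: TGI = concentration required for complete inhibition of growth.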
# How the values were obtained:
# Experiment in all cases: DTP human tumour cell line panel, 384-well format
# [1] = tested on: 786-0 renal
# [2] = tested on: A498 renal
# [3] = tested on: A549 NSCLC
# [4] = tested on: ACHN renal
# [5] = tested on: BT-549 breast
# [6] = tested on: CAKI-1 renal
# [7] = tested on: CCRF-CEM leukemia
# [8] = tested on: COLO 205 colon
# [9] = tested on: DU-145 prostate
# [10] = tested on: EKVX NSCLC
# [11] = tested on: HCC-2998 colon
# [12] = tested on: HCT-15 colon
# [13] = tested on: HL-60(TB) leukemia
# [14] = tested on: HOP-62 NSCLC
# [15] = tested on: HOP-92 NSCLC
# [16] = tested on: HS 578T breast
# [17] = tested on: HT29 colon
# [18] = tested on: IGROV1 ovarian
# [19] = tested on: KM12 colon
# [20] = tested on: M14 melanoma
# [21] = tested on: MALME-3M melanoma
# [22] = tested on: MCF7 breast
# [23] = tested on: MDA-MB-231 breast
# [24] = tested on: MDA-MB-435 melanoma
# [25] = tested on: MDA-MB-468 breast
# [26] = tested on: MOLT-4 leukemia
# [27] = tested on: NCI-H226 lung
# [28] = tested on: NCI-H23 lung
# [29] = tested on: NCI-H322M lung
# [30] = tested on: NCI-H460 NSCLC
# [31] = tested on: NCI-H522 lung
# [32] = tested on: NCI/ADR-RES ovarian
# [33] = tested on: OVCAR-3 ovarian
# [34] = tested on: OVCAR-4 ovarian
# [35] = tested on: OVCAR-5 ovarian
# [36] = tested on: OVCAR-8 ovarian
# [37] = tested on: PC-3 prostate
# [38] = tested on: RPMI-8226 leukemia
# [39] = tested on: RXF 393 renal
# [40] = tested on: SF-268 CNS
# [41] = tested on: SF-295 CNS
# [42] = tested on: SF-539 CNS
# [43] = tested on: SK-MEL-2 melanoma
# [44] = tested on: SK-MEL-28 melanoma
# [45] = tested on: SK-MEL-5 melanoma
# [46] = tested on: SK-OV-3 ovarian
# [47] = tested on: SNB-19 CNS
# [48] = tested on: SNB-75 CNS
# [49] = tested on: SR leukemia
# [50] = tested on: SW-620 colon
# [51] = tested on: T-47D breast
# [52] = tested on: TK-10 renal
# [53] = tested on: U251 glioblastoma
# [54] = tested on: UACC-257 melanoma
# [55] = tested on: UACC-62 melanoma
# [56] = tested on: HCT-116 colon
# [57] = tested on: K-562 leukemia
# [58] = tested on: SN12C renal
# [59] = tested on: UO-31 renal
structure (smiles),measurement,setting,value
N#C[C@@H]1C(n2ccc(N)nc2=O)O[C@H](CO)[C@H]1O (some centres undefined),GI50,[1],0.418 µM
same,TGI,[1],46.8 µM
same,GI50,[2],688 nM
same,TGI,[2],14.4 µM
same,GI50,[3],1.25 µM
same,TGI,[3],71 µM
same,GI50,[4],14.5 µM
same,TGI,[4],35.6 µM
same,GI50,[5],3560 nM
same,TGI,[5],> 100 µM
same,GI50,[6],20 µM
same,TGI,[6],> 100 µM
same,GI50,[7],27.5 nM
same,TGI,[7],125 nM
same,GI50,[8],2280 nM
same,TGI,[8],17.7 µM
same,GI50,[9],0.54 µM
same,TGI,[9],35.3 µM
same,GI50,[10],> 100000 nM
same,TGI,[10],> 100 µM
same,GI50,[11],893 nM
same,TGI,[11],18.4 µM
same,GI50,[12],9.45 µM
same,TGI,[12],> 100 µM
same,GI50,[13],0.315 µM
same,TGI,[13],728 nM
same,GI50,[14],340 nM
same,TGI,[14],16.7 µM
same,GI50,[15],3.17 µM
same,TGI,[15],93.8 µM
same,GI50,[16],2010 nM
same,TGI,[16],> 100 µM
same,GI50,[17],> 100 µM
same,TGI,[17],> 100 µM
same,GI50,[18],> 100000 nM
same,TGI,[18],> 100 µM
same,GI50,[19],8.14 µM
same,TGI,[19],> 100 µM
same,GI50,[20],543 nM
same,TGI,[20],4.47 µM
same,GI50,[21],1210 nM
same,TGI,[21],7.34 µM
same,GI50,[22],1.58 µM
same,TGI,[22],> 100 µM
same,GI50,[23],17.1 µM
same,TGI,[23],> 100 µM
same,GI50,[24],85 µM
same,TGI,[24],> 100 µM
same,GI50,[25],0.314 µM
same,TGI,[25],824 nM
same,TGI,[26],0.0141 µM
same,GI50,[27],3.7 µM
same,TGI,[27],32.4 µM
same,GI50,[28],569 nM
same,TGI,[28],12.2 µM
same,GI50,[29],45.8 µM
same,TGI,[29],> 100 µM
same,GI50,[30],0.283 µM
same,TGI,[30],10.5 µM
same,GI50,[31],2.03 µM
same,TGI,[31],79.6 µM
same,GI50,[32],6.95 µM
same,TGI,[32],32.1 µM
same,GI50,[33],13.9 µM
same,TGI,[33],> 100 µM
same,GI50,[34],> 100 µM
same,TGI,[34],> 100 µM
same,GI50,[35],37.1 µM
same,TGI,[35],> 100 µM
same,GI50,[36],0.962 µM
same,TGI,[36],20.9 µM
same,GI50,[37],36.4 µM
same,TGI,[37],> 100 µM
same,GI50,[38],6.73 µM
same,TGI,[38],55.9 µM
same,GI50,[39],24.4 µM
same,TGI,[39],70.3 µM
same,GI50,[40],632 nM
same,TGI,[40],27.7 µM
same,GI50,[41],2220 nM
same,TGI,[41],44.8 µM
same,GI50,[42],4.18 µM
same,TGI,[42],> 100 µM
same,GI50,[43],2750 nM
same,TGI,[43],7.76 µM
same,GI50,[44],2340 nM
same,TGI,[44],9.71 µM
same,GI50,[45],3.52 µM
same,TGI,[45],44.4 µM
same,GI50,[46],1.32 µM
same,TGI,[46],21.9 µM
same,GI50,[47],0.849 µM
same,TGI,[47],47.4 µM
same,GI50,[48],13.8 µM
same,TGI,[48],85.8 µM
same,GI50,[49],1920 nM
same,TGI,[49],3.54 µM
same,GI50,[50],34.9 µM
same,TGI,[50],> 100 µM
same,GI50,[51],> 100 µM
same,TGI,[51],> 100 µM
same,GI50,[52],> 100000 nM
same,TGI,[52],> 100 µM
same,GI50,[53],3.78 µM
same,TGI,[53],67.7 µM
same,GI50,[54],31.9 µM
same,TGI,[54],> 100 µM
same,GI50,[55],3.35 µM
same,TGI,[55],34.4 µM
CC(C)[C@H]1C(=O)N[C@@H](CCCN=C(N)N)C(=O)NCC(=O)N[C@@H](CC(=O)O)C(=O)N[C@H](Cc2ccccc2)C(=O)N1C,GI50,[1],7.76 µM
same,TGI,[1],> 100 µM
same,GI50,[2],765 nM
same,TGI,[2],> 100 µM
same,GI50,[3],39.3 µM
same,TGI,[3],> 100 µM
same,GI50,[4],4.33 µM
same,TGI,[4],> 100 µM
same,GI50,[5],2130 nM
same,TGI,[5],> 100 µM
same,GI50,[6],0.72 µM
same,TGI,[6],14.4 µM
same,GI50,[8],> 100000 nM
same,TGI,[8],> 100 µM
same,GI50,[9],8.01 µM
same,TGI,[9],> 100 µM
same,GI50,[10],2300 nM
same,TGI,[10],9.86 µM
same,GI50,[56],26.7 µM
same,TGI,[56],> 100 µM
same,GI50,[12],> 100 µM
same,TGI,[12],> 100 µM
same,GI50,[13],42.7 µM
same,TGI,[13],> 100000 nM
same,GI50,[14],4510 nM
same,TGI,[14],> 100 µM
same,GI50,[15],6.51 µM
same,TGI,[15],> 100 µM
same,GI50,[16],3760 nM
same,TGI,[16],> 100 µM
same,GI50,[17],53.1 µM
same,TGI,[17],> 100 µM
same,GI50,[18],2380 nM
same,TGI,[18],> 100 µM
same,GI50,[57],37.7 µM
same,TGI,[57],> 100 µM
same,GI50,[19],42.5 µM
same,TGI,[19],> 100 µM
same,GI50,[20],> 100000 nM
same,TGI,[20],> 100 µM
same,GI50,[21],> 100000 nM
same,TGI,[21],> 100 µM
same,GI50,[22],13.9 µM
same,TGI,[22],> 100 µM
same,GI50,[23],35.5 µM
same,TGI,[23],> 100 µM
same,GI50,[24],> 100 µM
same,TGI,[24],> 100 µM
same,GI50,[25],59.8 µM
same,TGI,[25],> 100000 nM
same,GI50,[26],5.83 µM
same,TGI,[26],18 µM
same,GI50,[27],5.9 µM
same,TGI,[27],> 100 µM
same,GI50,[28],> 100000 nM
same,TGI,[28],> 100 µM
same,GI50,[29],> 100 µM
same,TGI,[29],> 100 µM
same,GI50,[30],58.3 µM
same,TGI,[30],> 100 µM
same,GI50,[31],3.98 µM
same,TGI,[31],> 100 µM
same,GI50,[33],53.9 µM
same,TGI,[33],> 100 µM
same,GI50,[34],7.1 µM
same,TGI,[34],> 100 µM
same,GI50,[35],74.5 µM
same,TGI,[35],> 100 µM
same,GI50,[36],11 µM
same,TGI,[36],> 100 µM
same,GI50,[37],> 100 µM
same,TGI,[37],> 100 µM
same,GI50,[39],0.194 µM
same,TGI,[39],0.858 µM
same,GI50,[40],3290 nM
same,TGI,[40],> 100 µM
same,GI50,[41],> 100000 nM
same,TGI,[41],> 100 µM
same,GI50,[42],27.2 µM
same,TGI,[42],> 100 µM
same,GI50,[43],> 100000 nM
same,TGI,[43],> 100 µM
same,GI50,[44],> 100000 nM
same,TGI,[44],> 100 µM
same,GI50,[45],> 100 µM
same,TGI,[45],> 100 µM
same,GI50,[46],41.8 µM
same,TGI,[46],> 100 µM
same,GI50,[58],> 100 µM
same,TGI,[58],> 100 µM
same,GI50,[47],15.7 µM
same,TGI,[47],> 100 µM
same,GI50,[48],0.226 µM
same,TGI,[48],0.871 µM
same,GI50,[49],2590 nM
same,TGI,[49],12.2 µM
same,GI50,[50],37.8 µM
same,TGI,[50],> 100 µM
same,GI50,[51],38.3 µM
same,TGI,[51],> 100 µM
same,GI50,[52],2000 nM
same,TGI,[52],> 100 µM
same,GI50,[53],8.88 µM
same,TGI,[53],> 100 µM
same,GI50,[54],> 100 µM
same,TGI,[54],> 100 µM
same,GI50,[55],70.8 µM
same,TGI,[55],> 100 µM
same,GI50,[59],5.4 µM
same,TGI,[59],99.4 µM

# Source: PubChem BioAssay (NCI)
